Measured values from patent US20240067662A1, “KRAS INHIBITORS” (Bristol-Myers Squibb Company, priority 2022, published 2024).

Biological target: GMPPNP-loaded KRAS G12C (Homo sapiens, UniProt P01116, G12C)
Assay: KRAS G12C RAF Disruption Assay (HTRF)
Format: biochemical
Settings: recombinant GMPPNP-loaded KRAS G12C (5 nM), 20 min with compound; GST-RAF1 RBD (9 nM); HTRF signal; read-out: KRASG12C RAF Disruption Assay (IC50)
Method in brief: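 GMPPNP-loaded KRAS G12C (5 nM) was preincubated with compound for 20 min at room temperature in Tris pH 7.5 buffer with NaCl, MgCl2, DTT and BSA. GST-RAF1 RBD (9 nM) was added for 20 min, then SA-Tb (0.25 nM) for 3 h. IC50 was fitted from the HTRF 520/495 ratio.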

Row | IC50 [µM] | Compound
1 | 0.067 | CN1CCC[C@H]1COc1nc(N2CCN(C(=O)/C(F)=C/c3nccs3)[C@@H](CC#N)C2)c2cnc(-c3cccc4cccc(Cl)c34)c(F)c2n1 [Compound 21A, 2-((S)-4-(7-(8-chloronaphthalen-1-yl)-8-fluoro-2-(((S)-1-methylpyrrolidin-2-yl)methoxy)pyrido[4,3-d]pyrimidin-4-yl)-1-((Z)-2-fluoro-3-(thiazol-2-yl)acryloyl)piperazin-2-yl)acetonitrile]
2 | 0.8 | N#Cc1cccc2cccc(-c3ncc4c(N5CCN(C(=O)/C(F)=C/c6ccccn6)CC5)nc(OC[C@@]56CCCN5C[C@H](F)C6)nc4c3F)c12 [Example 49, 8-(8-fluoro-4-(4-((Z)-2-fluoro-3-(pyridin-2-yl)acryloyl)piperazin-1-yl)-2-(((2R, 7aS)-2-fluorotetrahydro-1H-pyrrolizin-7a(5H)-yl)methoxy)pyrido[4,3-d]pyrimidin-7yl)-1-naphthonitrile]
3 | 5.6 | C#Cc1cccc2cccc(-c3ncc4c(N5CCC6C5CCN6C(=O)/C(F)=C/c5ccccn5)nc(OC[C@@]56CCCN5C[C@H](F)C6)nc4c3F)c12 (single isomer, unassigned) [Compound 107]
4 | 0.3 | C#Cc1cccc2cccc(-c3ncc4c(N5CCN(C(=O)/C(F)=C/c6nccs6)C[C@@H]5C)nc(OC[C@@]56CCCN5C[C@H](F)C6)nc4c3F)c12 [Example 62, (Z)-1-((S)-4-(7-(8-ethynylnaphthalen-1-yl)-8-fluoro-2-(((2R, 7aS)-2-fluorotetrahydro-1H-pyrrolizin-7a(5H)-yl)methoxy)pyrido[4,3-d]pyrimidin-4-yl)-3-methylpiperazin-1-yl)-2-fluoro-3-(thiazol-2-yl)prop-2-en-1-one]
5 | 4.3 | C#Cc1cccc2cccc(-c3ncc4c(N5CCC6C5CCN6C(=O)/C(F)=C/c5ccccn5)nc(OC[C@@]56CCCN5C[C@H](F)C6)nc4c3F)c12 (single isomer, unassigned) [Compound 108]
6 | 0.46 | N#CC[C@H]1CN(c2nc(OC[C@@]34CCCN3C[C@H](F)C4)nc3c(F)c(-c4cc(F)ccc4C(F)(F)F)ncc23)CCN1C(=O)/C(F)=C/c1nccs1 [Example 45, 2-((S)-1-((Z)-2-fluoro-3-(thiazol-2-yl)acryloyl)-4-(8-fluoro-7-(5-fluoro-2-(trifluoromethyl)phenyl)-2-(((2R, 7aS)-2-fluorotetrahydro-1H-pyrrolizin-7a(5H)-yl)methoxy)pyrido[4,3-d]pyrimidin-4-yl)piperazin-2-yl)acetonitrile]
7 | 0.62 | C#Cc1cccc2cccc(-c3ncc4c(N5CCC6(CCN6C(=O)/C(F)=C/c6nccs6)C5)nc(OC[C@@]56CCCN5C[C@H](F)C6)nc4c3F)c12 (single isomer, unassigned) [Compound 103]
8 | 0.11 | CCc1cccc2cccc(-c3ncc4c(N5CCN(C(=O)/C(F)=C/c6nccs6)[C@@H](CC#N)C5)nc(OC[C@@H]5CCCN5C)nc4c3F)c12 [Example 24, 2-((S)-4-(7-(8-ethylnaphthalen-1-yl)-8-fluoro-2-(((S)-1-methylpyrrolidin-2-yl)methoxy)pyrido[4,3-d]pyrimidin-4-yl)-1-((Z)-2-fluoro-3-(thiazol-2-yl)acryloyl)piperazin-2-yl)acetonitrile]
9 | 0.29 | C#Cc1cccc2cccc(-c3ncc4c(N5CCN(C(=O)/C(F)=C/c6ccccn6)CC5)nc(OC[C@@H]5CCCN5C)nc4c3F)c12 [Example 25, (S,Z)-1-(4-(7-(8-ethynylnaphthalen-1-yl)-8-fluoro-2-((1-methylpyrrolidin-2-yl)methoxy)pyrido[4,3-d]pyrimidin-4-yl)piperazin-1-yl)-2-fluoro-3-(pyridin-2-yl)prop-2-en-1-one]

More lines, now with the values behind:

Row | Compound | IC50 [µM]
10 | C#Cc1cccc2cccc(-c3ncc4c(N(C)C5CCN(C(=O)/C(F)=C/c6ccccn6)C5C)nc(OC[C@@]56CCCN5C[C@H](F)C6)nc4c3F)c12 (single isomer, unassigned) [Example 74 cis isomer 2] | 0.91
11 | C#Cc1c(F)ccc2cc(O)cc(-c3ncc4c(N5C[C@H]6CC[C@@H](C5)N6C(=O)/C(F)=C/c5cc(C)ccn5)nc(OC[C@@]56CCCN5C[C@H](F)C6)nc4c3F)c12 [Compound 3, (Z)-1-((1R, 5S)-3-(7-(8-ethynyl-7-fluoro-3-hydroxynaphthalen-1-yl)-8-fluoro-2-(((2R, 7aS)-2-fluorotetrahydro-1H-pyrrolizin-7a(5H)-yl)methoxy)pyrido[4,3-d]pyrimidin-4-yl)-3,8-diazabicyclo[3.2.1]octan-8-yl)-2-fluoro-3-(4-methylpyridin-2-yl)prop-2-en-1-one] | 0.019
12 | C#Cc1c(F)ccc2cc(O)cc(-c3ncc4c(N5CCN(C(=O)/C(F)=C/c6ccccn6)CC5)nc(OC[C@@H]5CCCN5CCCn5cc(CNC(=O)CCCC[C@@H]6SC[C@@H]7NC(=O)N[C@@H]76)nn5)nc4c3F)c12 [Compound 112, N-((1-(3-((S)-2-(((7-(8-ethynyl-7-fluoro-3-hydroxynaphthalen-1-yl)-8-fluoro-4-(4-((Z)-2-fluoro-3-(pyridin-2-yl)acryloyl)piperazin-1-yl)pyrido[4,3-d]pyrimidin-2-yl)oxy)methyl)pyrrolidin-1-yl)propyl)-1H-1,2,3-triazol-4-yl)methyl)-5-((3aS,4S,6aR)-2-oxohexahydro-1H-thieno[3,4-d]imidazol-4-yl)pentanamide] | < 0.002
13 | C#Cc1c(F)ccc2cc(O)cc(-c3ncc4c(N5C[C@H]6CC[C@@H](C5)N6C(=O)/C(F)=C/c5ncccn5)nc(OC[C@@]56CCCN5C[C@H](F)C6)nc4c3F)c12 [Compound 7, (Z)-1-((1R, 5S)-3-(7-(8-ethynyl-7-fluoro-3-hydroxynaphthalen-1-yl)-8-fluoro-2-(((2R, 7aS)-2-fluorotetrahydro-1H-pyrrolizin-7a(5H)-yl)methoxy)pyrido[4,3-d]pyrimidin-4-yl)-3,8-diazabicyclo[3.2.1]octan-8-yl)-2-fluoro-3-(pyrimidin-yl)prop-2-en-1-one] | 0.016
14 | 2-((S)-4-(8-fluoro-2-(((S)-1-methylpyrrolidin-2-yl)methoxy)-7-(naphthalen-1-yl)pyrido[4,3-d]pyrimidin-4-yl)-1-((Z)-2-fluoro-3-(pyridin-2-yl)acryloyl)piperazin-2-yl)acetonitrile [Compound 21B] | 0.33
15 | C#Cc1cccc2cccc(-c3ncc4c(N5C[C@H](C)N(C(=O)/C(F)=C/c6ccccn6)C[C@H]5C)nc(OC[C@@]56CCCN5C[C@H](F)C6)nc4c3F)c12 [Compound 83, (Z)-1-((2S,5R)-4-(7-(8-ethynylnaphthalen-1-yl)-8-fluoro-2-(((2R, 7aS)-2-fluorotetrahydro-1H-pyrrolizin-7a(5H)-yl)methoxy)pyrido[4,3-d]pyrimidin-4-yl)-2,5-dimethylpiperazin-1-yl)-2-fluoro-3-(pyridin-2-yl)prop-2-en-1-one] | 2.6
16 | C#Cc1c(F)ccc2cc(O)cc(-c3ncc4c(N5C[C@H]6CC[C@@H](C5)N6C(=O)/C(F)=C/c5ccc(C)cn5)nc(OC[C@@]56CCCN5C[C@H](F)C6)nc4c3F)c12 [Compound 6, (Z)-1-((1R, 5S)-3-(7-(8-ethynyl-7-fluoro-3-hydroxynaphthalen-1-yl)-8-fluoro-2-(((2R, 7aS)-2-fluorotetrahydro-1H-pyrrolizin-7a(5H)-yl)methoxy)pyrido[4,3-d]pyrimidin-4-yl)-3,8-diazabicyclo[3.2.1]octan-8-yl)-2-fluoro-3-(5-methylpyridin-2-yl)prop-2-en-1-one] | 0.045
